In patent US11090292B2, “Compositions and methods of use of an inappetance-controlling compound” (Aratana Therapeutics, Inc., priority 2012, dated 2021):

Columns and labels:
[1] = Example 5: capromorelin concentration in serum; format: in vivo, Beagle dogs
Method: In order to further refine the dosing regimen that would provide an appropriate blood profile of capromorelin and desired results from the perspective of increased food intake and weight gain, an additional series of experiments were conducted. In these experiments, twenty-four adult (male and female) Beagle dogs weighing approximately 9 to 13 kilograms were randomly divided into four groups. Group 1 received a placebo formulation, without any active compound, two times per day; Group 2 received a composition comprising 3 mg/kg of body weight of capromorelin one time per day; Group 3 received a composition comprising 4.5 mg/kg of body weight of capromorelin one time per day; and Group 4 received a composition comprising 3 mg/kg of body weight of capromorelin two times per day.
In particular, on the first day of dosing, Day 1, through the last day of dosing, Day 7, the compositions were orally administered (i.e., using a syringe) to the animals in a flavored formulation of the following composition: […]
In these experiments, the animals were orally administered the flavored formulation at approximately 8:00 AM and, for Group 4 only, again at 6:00 PM. The animals were fed at 10:00 AM beginning seven days prior to Day 1 and continuing for the duration of the study. The animals were offered twice the normal amount of food. Approximately two hours after the food offering, the remainder was removed and weighed to assess food intake. This restricted feeding regime was started at Day −7 to allow the animals to transition to a normal feed intake before the study was initiated. Food consumption was calculated and recorded on Days −7 through Day 7. Baseline food consumption was calculated for each individual dog as the average number of grams of food consumed on Days −3, −2, and −1. The study period food consumption was calculated for each individual dog as the average of Days 1 through 7. Body weights were collected on Days −1, 3, and 7. […]

IGF-1 = assay: Example 4: serum IGF-1 concentration; format: in vivo, Beagle dogs
Method: (§1) A controlled, seven-day study was performed to assess the impact of different capromorelin-dosing regimens on the production of IGF-1, GH, and cortisol. The different capromorelin-dosing regimens were also assessed for the impact on food intake and changes in body mass.
(§2) […] were divided into one of three treatment groups, with one negative control group and two active treatment groups. Each of the three treatment groups included three males and three females. The first group received a placebo formulation (i.e., deionized water) twice per day, via oral gavage. The second group received a once-daily dose of the capromorelin composition at a concentration of 3 mg/kg, via oral gavage. The third group received a twice-daily dose of the capromorelin composition at a concentration of 3 mg/kg, via oral gavage.
(§3) During the ten day study period, on an at least once-daily basis, each of the dogs was monitored for clinical observations, mortality, moribundity, body mass, acceptability/palatability, and food consumption. Serum samples were taken to measure capromorelin concentration, GH concentration, IGF-1 concentration, and cortisol concentration. Serum samples were taken on days 1, 2, 4, and 7 at −15 minutes (pre-dose), immediately prior to dosing (0 minutes) and 30, 45, 60, 90, 120, 240, 360, and/or 480 minutes post dosing. Additional serum samples were taken at 8 AM on Day 10 of the study to assess long-term impact of the active treatments.

[2] = Example 9: capromorelin concentration in serum; format: in vivo
Method: (§4) A four-day study was performed to further assess the pharmacokinetics of formulation 8 from Example 3 (i.e., the most “well-accepted” formulation) in cats. Moreover, the administration of formulation 8 was also analyzed to determine if administration of this formulation could induce sustained production of IGF-1 and relatively depressed, mitigated, or lower levels of cortisol. The different capromorelin-dosing regimens were also assessed for the impact on food intake and changes in body mass.
Twenty-four adult cats were divided into one of four treatment groups, with all four groups as active treatment groups. Each of the active treatment groups included 6 cats. The first group received a sterile injection of a capromorelin composition containing a 0.75 mg/kg concentration of capromorelin once per day during the four-day experiment. The second group received a once-daily sterile injection of a capromorelin composition at a concentration of 2 mg/kg. The third group received a once-daily dose of a capromorelin composition at a concentration of 2 mg/kg, via oral gavage. […]
During the seven day study period, on an at least once-daily basis, each of the cats was monitored for clinical observations, mortality, moribundity, body mass, acceptability/palatability, and food consumption. […]

GH = assay: Example 4: serum GH concentration; format: in vivo, Beagle dogs; details: once-daily or twice-daily 3 mg/kg, approximately 0.5 h, days 1, 4, 7
Method: as §1, §2
as §3, with “Additional serum samples were taken at 8 AM on Day 10 of the study to assess long-term impact of the active treatments.” left out

[3] = Example 9 four-day cat dosing regimen study: food consumption and body weight; format: in vivo, cats; details: for increase in body weight relative to baseline measurements: four days
Method: as §4
Twenty-four adult cats were divided into one of four treatment groups, with all four groups as active treatment groups. Each of the active treatment groups included 6 cats. The first group received a sterile injection of a capromorelin composition containing a 0.75 mg/kg concentration of capromorelin once per day during the four-day experiment. The second group received a once-daily sterile injection of a capromorelin composition at a concentration of 2 mg/kg. The third group received a once-daily dose of a capromorelin composition at a concentration of 2 mg/kg, via oral gavage. The fourth group received a once-daily dose of a capromorelin composition containing capromorelin at a concentration of 4 mg/kg, via oral gavage.
During the seven day study period, on an at least once-daily basis, each of the cats was monitored for clinical observations, mortality, moribundity, body mass, acceptability/palatability, and food consumption. Serum samples were taken to measure capromorelin concentration, IGF-1 concentration, and cortisol concentration. Serum samples were taken on days 1 and 4 immediately prior to dosing (0 minutes) and 30, 60, 90, 120, 240, 360, and/or 480 minutes post dosing. Additional serum samples were taken at 8 AM on Day 7 of the study to assess long-term impact of the active treatments.

Structure (SMILES): CN1N=C2CCN(C(=O)[C@@H](COCc3ccccc3)NC(=O)C(C)(C)N)C[C@@]2(Cc2ccccc2)C1=O.O=C(O)C(O)C(O)C(=O)O [capromorelin]
- serum capromorelin by 8 hours ([1]; Days 1 and 7, Groups 2-4): back to baseline levels
- time post administration of initial spike of serum capromorelin ([1]; Days 1 and 7, Groups 2-4): 30 min
- capromorelin accumulation ([1]; seven days of dosing): no evidence of capromorelin accumulation
- serum IGF-1 levels versus deionized water three days after terminating treatment (IGF-1; Day 10): not significantly different
- increase in serum IGF-1 concentration at eight hours post administration relative to time 0 (IGF-1; once-daily 3 mg/kg, day 1): approximately 83.9%
- increase in serum IGF-1 concentration at eight hours post administration relative to time 0 (IGF-1; once-daily 3 mg/kg, day 4): approximately 39.5%
- increase in serum IGF-1 concentration at eight hours post administration relative to time 0 (IGF-1; once-daily 3 mg/kg, day 7): ~36.8%
- increase in serum IGF-1 concentration at eight hours post administration relative to time 0 (IGF-1; twice-daily 3 mg/kg, day 1): approximately 50.6%
- increase in serum IGF-1 concentration at eight hours post administration relative to time 0 (IGF-1; twice-daily 3 mg/kg, day 4): approximately 15.4%
- increase in serum IGF-1 concentration at eight hours post administration relative to time 0 (IGF-1; twice-daily 3 mg/kg, day 7): ~13.3%
- levels of capromorelin in the serum ([2]; oral formulations): relatively low levels of capromorelin in the serum
- time post administration of peak capromorelin concentration in the serum ([2]; sterile injectable formulation): about 0.5 h
- GH levels in the serum after dosing (GH): marked increase
- increase in body weight relative to baseline measurements ([3]; 0.75 mg/kg sterile injection once daily): 1.33%
- increase in body weight relative to baseline measurements ([3]; 2 mg/kg oral once daily): 0.70%
- increase in body weight relative to baseline measurements ([3]; 2 mg/kg sterile injection once daily): 2.37%
- increase in body weight relative to baseline measurements ([3]; 4 mg/kg oral once daily): 1.47%
- food consumed relative to prior days of the experiment ([3]; sterile injectable formulations (0.75, 2 mg/kg) or 4 mg/kg oral gavage, once daily): consumed more food on day 4
